Measurements from the supplement of paper PMC10307832.

What follows are cell lines tested with COCC[n+]1c2c(n(Cc3cnccn3)c1C)C(=O)c1ccccc1C2=O [YM155] + Cc1cc(Nc2cc(N3CCN(C)CC3)nc(Sc3ccc(NC(=O)C4CC4)cc3)n2)n[nH]1 [Tozasertib] (partner 0.1 µM) (assay: relative viability (nuclei count vs DMSO), 5 days (fraction); higher = more cells survive). Conditions: first compound 0.002 µM.
In short: (§1)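 Relative viability equals treated-well nuclei counts divided by vehicle-well nuclei counts. Counts came from 4× images of lung cancer cell lines grown in 1536-well plates for 5 days after pin-tool dosing on the day after seeding. Dosing used one drug alone or a fixed anchor-drug dose plus five library-drug doses (not always all listed) in √10 steps, and values are medians of duplicate plates.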

Point of comparison: NCI-H1666, relative viability 0.629. Against it:
- ABC-1 — lower, 0.163
- NCI-H1734 — lower, 0.268
- COR-L 105 — lower, 0.345
- HCC-15 — lower, 0.4
- HARA — lower, 0.0954
- NCI-H1975 — higher, 0.715
- NCI-H1944 — lower, 0.253
- NCI-H2126 — higher, 0.807
- EMC-BAC-2 — lower, 0.265
- SK-LU-1 — lower, 0.293
- NCI-H2170 — higher, 0.831
- SW 900 — higher, 0.816
- NCI-H661 — lower, 0.376
- NCI-H358 — lower, 0.111
- CAL-12T — lower, 0.311
- LK-2 — lower, 0.154
- HOP-62 — lower, 0.384
- PC-14 — lower, 0.585
- NCI-H1993 — lower, 0.582
- NCI-H2405 — higher, 0.678
- NCI-H3122 — lower, 0.43
- A-427 — lower, 0.238
- NCI-H2342 — lower, 0.477
- LOU-NH91 — higher, 0.667
- NCI-H596 — higher, 0.847
- NCI-H23 — lower, 0.373
- NCI-H838 — lower, 0.252
- NCI-H322M — lower, 0.461
- NCI-H1793 — lower, 0.385
- NCI-H441 — lower, 0.559
- NCI-H727 — lower, 0.38
- SW 1573 — lower, 0.132
- 201T — higher, 0.916
- NCI-H1755 — lower, 0.51

Same assay, conditions: first compound 0.006325 µM

Point of comparison: ABC-1, relative viability 0.164. Against it:
- NCI-H1734 — higher, 0.234
- COR-L 105 — higher, 0.352
- HCC-15 — higher, 0.369
- HARA — lower, 0.122
- NCI-H1975 — higher, 0.704
- NCI-H1944 — higher, 0.279
- NCI-H2126 — higher, 0.88
- EMC-BAC-2 — higher, 0.256
- SK-LU-1 — higher, 0.357
- NCI-H2170 — higher, 0.792
- SW 900 — higher, 0.553
- NCI-H661 — higher, 0.358
- NCI-H358 — lower, 0.126
- CAL-12T — higher, 0.336
- LK-2 — higher, 0.188
- HOP-62 — higher, 0.383
- PC-14 — higher, 0.632
- NCI-H1993 — higher, 0.646
- NCI-H2405 — higher, 0.704
- NCI-H3122 — higher, 0.423
- A-427 — higher, 0.191
- NCI-H2342 — higher, 0.566
- LOU-NH91 — higher, 0.665
- NCI-H596 — higher, 0.811
- NCI-H1666 — higher, 0.646
- NCI-H23 — higher, 0.345
- NCI-H838 — higher, 0.275
- NCI-H322M — higher, 0.496
- NCI-H1793 — higher, 0.38
- NCI-H441 — higher, 0.63
- NCI-H727 — higher, 0.721
- SW 1573 — lower, 0.155
- 201T — higher, 0.961
- NCI-H1755 — higher, 0.584

Same assay, conditions: first compound 0.02 µM

Point of comparison: ABC-1, relative viability 0.137. Against it:
- NCI-H1734 — higher, 0.26
- COR-L 105 — higher, 0.316
- HCC-15 — higher, 0.472
- HARA — lower, 0.13
- NCI-H1975 — higher, 0.859
- NCI-H1944 — higher, 0.259
- NCI-H2126 — higher, 0.948
- EMC-BAC-2 — higher, 0.273
- SK-LU-1 — higher, 0.418
- NCI-H2170 — higher, 0.784
- SW 900 — higher, 0.588
- NCI-H661 — higher, 0.369
- NCI-H358 — lower, 0.103
- CAL-12T — higher, 0.376
- LK-2 — higher, 0.208
- HOP-62 — higher, 0.391
- PC-14 — higher, 0.629
- NCI-H1993 — higher, 0.498
- NCI-H2405 — higher, 0.637
- NCI-H3122 — higher, 0.396
- A-427 — higher, 0.243
- NCI-H2342 — higher, 0.541
- LOU-NH91 — higher, 0.712
- NCI-H596 — higher, 0.953
- NCI-H1666 — higher, 0.686
- NCI-H23 — higher, 0.53
- NCI-H838 — higher, 0.252
- NCI-H322M — higher, 0.504
- NCI-H1793 — higher, 0.369
- NCI-H441 — higher, 0.645
- NCI-H727 — higher, 0.615
- SW 1573 — lower, 0.0846
- 201T — higher, 0.955
- NCI-H1755 — higher, 0.603

Same assay, conditions: first compound 0.06325 µM

Point of comparison: NCI-H358, relative viability 0.0626. Against it:
- ABC-1 — higher, 0.151
- NCI-H1734 — higher, 0.281
- COR-L 105 — higher, 0.327
- HCC-15 — higher, 0.251
- HARA — higher, 0.121
- NCI-H1975 — higher, 0.163
- NCI-H1944 — higher, 0.232
- NCI-H2126 — higher, 0.934
- EMC-BAC-2 — higher, 0.275
- SK-LU-1 — higher, 0.341
- NCI-H2170 — higher, 0.722
- SW 900 — higher, 0.45
- NCI-H661 — higher, 0.285
- CAL-12T — higher, 0.149
- LK-2 — higher, 0.203
- HOP-62 — higher, 0.354
- PC-14 — higher, 0.564
- NCI-H1993 — higher, 0.452
- NCI-H2405 — higher, 0.513
- NCI-H3122 — higher, 0.273
- A-427 — higher, 0.177
- NCI-H2342 — higher, 0.479
- LOU-NH91 — higher, 0.603
- NCI-H596 — higher, 1.03
- NCI-H1666 — higher, 0.664
- NCI-H23 — higher, 0.286
- NCI-H838 — higher, 0.19
- NCI-H322M — higher, 0.46
- NCI-H1793 — higher, 0.32
- NCI-H441 — higher, 0.467
- NCI-H727 — higher, 0.7
- SW 1573 — higher, 0.0818
- 201T — higher, 0.974
- NCI-H1755 — higher, 0.54

The cell lines below were run with CC(C)(C)c1cc(NC(=O)Nc2ccc(-c3cn4c(n3)sc3cc(OCCN5CCOCC5)ccc34)cc2)no1 [Quizartinib] + O=C(CCCCCCC(=O)Nc1ccccc1)NO [Vorinostat] (partner 1 µM) in the same assay as above. Conditions: first compound 0.001 µM.
In short: as §1

Point of comparison: NCI-H1734, relative viability 0.748. Against it:
- COR-L 105 — lower, 0.266
- HCC-15 — lower, 0.747
- HARA — lower, 0.468
- NCI-H1975 — lower, 0.669
- NCI-H1944 — lower, 0.448
- NCI-H2126 — lower, 0.621
- EMC-BAC-2 — lower, 0.433
- SK-LU-1 — higher, 0.766
- NCI-H2170 — lower, 0.745
- SW 900 — lower, 0.402
- NCI-H661 — lower, 0.724
- NCI-H358 — lower, 0.733
- CAL-12T — lower, 0.684
- LK-2 — lower, 0.179
- HOP-62 — lower, 0.456
- PC-14 — lower, 0.707
- NCI-H1993 — lower, 0.68
